Results from PubChem BioAssay (NCI).
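Five concentrations, 48 hours, 96-well plates. The concentration for full growth arrest is given as TGI.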

Columns and labels:
Assay in all cases: NCI tumour cell line growth inhibition, 48 h
SF-295 CNS = test system: SF-295 CNS
EKVX NSCLC = test system: EKVX NSCLC
NCI/ADR-RES ovarian = test system: NCI/ADR-RES ovarian
HOP-62 NSCLC = test system: HOP-62 NSCLC
BT-549 breast = test system: BT-549 breast
KM12 colon = test system: KM12 colon
COLO 205 colon = test system: COLO 205 colon
786-0 renal = test system: 786-0 renal
SK-OV-3 ovarian = test system: SK-OV-3 ovarian
M14 melanoma = test system: M14 melanoma
NCI-H23 lung = test system: NCI-H23 lung
MOLT-4 leukemia = test system: MOLT-4 leukemia
OVCAR-4 ovarian = test system: OVCAR-4 ovarian
OVCAR-8 ovarian = test system: OVCAR-8 ovarian

Compound	TGI (SF-295 CNS) [µM]	TGI (EKVX NSCLC) [µM]	TGI (NCI/ADR-RES ovarian) [µM]	TGI (HOP-62 NSCLC) [µM]	TGI (BT-549 breast) [µM]	TGI (KM12 colon) [µM]	TGI (COLO 205 colon) [µM]	TGI (786-0 renal) [µM]	TGI (SK-OV-3 ovarian) [µM]	TGI (M14 melanoma) [µM]	TGI (NCI-H23 lung) [µM]	TGI (MOLT-4 leukemia) [µM]	TGI (OVCAR-4 ovarian) [µM]	TGI (OVCAR-8 ovarian) [µM]
COC[C@@H](C[C@H]1O[C@@](O)([C@H](O)[C@@H]2C[C@H](OC)[C@@H](O)CC/C=C(C)/C=C/[C@@H](O[C@@H]3O[C@@H](C)[C@H](OC)[C@@H](O)[C@@H]3O)[C@H](C)/C=C(C)/C=C(C)/C=C(\C)C(=O)O2)[C@H](C)[C@@H](O)[C@H]1C)O[C@H]1C[C@](C)(O)[C@@H](O[C@H]2C[C@@H](OC)[C@H](O)[C@@H](C)O2)C(C)O1 (stereo partly specified)	> 100	> 55.9	> 100	> 100	> 100	> 100	> 100	> 100	> 100	> 100	> 100	> 64.3	> 100	> 100
CCOc1cn(C2CC(O)C(CO)O2)c(=O)[nH]c1=O (stereo unspecified)	–	> 100	> 100	> 100	> 100	> 100	> 100	> 100	> 100	> 100	> 100	> 100	> 100	–
CCN(CC)C(=O)Cn1c(C)cc2ccccc21	> 100	> 100	> 100	> 100	> 100	> 100	> 100	> 100	> 100	> 100	> 100	> 100	> 100	> 100
COc1cc(/C=C2\C(=O)N(c3ccccc3)C(c3ccccc3)S2(=O)=O)cc(OC)c1OC (stereo unspecified)	> 100	> 100	> 100	> 100	> 100	> 100	> 100	> 100	> 100	> 100	> 100	> 100	> 100	> 100
COc1ccc2ccccc2c1/C=C/C(=O)c1ccccc1	15.6	12.1	> 54.8	9	14.7	8	9.76	11.9	11.2	9.62	9.69	6.78	9.4	11.2
CC1=NNC(N)=N/C1=C\C(Sc1ccc(Cl)cc1)c1ccc([N+](=O)[O-])cc1 (stereo unspecified)	> 100	> 100	> 100	> 100	> 100	> 100	> 100	> 100	> 100	> 100	> 100	> 100	> 100	> 100
c1ccc2c(c1)ccn2CCc1c[nH]c2ccccc12	> 10	> 10	> 10	> 10	> 10	> 10	> 10	> 10	> 10	> 10	> 10	> 10	> 10	> 10
O=C1CSC(c2cccc(Oc3ccccc3)c2)N1c1ccc(Cl)cc1 (stereo unspecified)	> 100	78.7	> 100	> 100	> 100	> 100	35.5	> 100	> 100	> 100	> 100	56.1	> 100	> 100
Cc1ccc([N+](=O)[O-])cc1S(=O)(=O)Nc1ccc(C2=NNC(c3ccccc3)C2)cc1 (stereo unspecified)	21.7	> 100	92.2	27.2	52	34.4	41.4	74.1	58.8	52.3	89.8	39.8	54.4	> 100
Cc1ccc(-c2c(C#N)c(-c3ccc(Cl)cc3)c(C#N)c(=O)n2NS(=O)(=O)c2ccc(C)cc2)cc1	> 100	> 100	49.6	> 100	> 100	80.6	> 100	> 100	89.2	60.2	–	40.6	> 100	> 100
O=C(c1ccc(N=Cc2ccccc2O)cc1)c1ccc(N=Cc2ccccc2O)cc1	> 100	> 100	> 100	> 100	> 100	> 100	> 100	> 100	> 100	> 100	> 100	> 100	> 100	–
Nc1cc2[nH]c(=O)c(=O)[nH]c2cc1N	> 100	> 100	> 100	> 100	> 100	> 100	> 100	> 100	> 100	–	> 100	> 100	> 100	> 100
CC12C(=O)CC(CC1=O)C2(C)C	> 100	> 100	> 100	> 100	> 100	> 100	> 100	> 100	> 100	> 100	–	> 100	> 100	> 100
